Residues, ends and D or L forms follow the SMILES beside them.

The assay concerns drug-resistant Mycobacterium tuberculosis. The following applies: peptide 10 micrograms per ml, seven days.

Take `C[C@@H](O)[C@H](N)C(=O)N[C@@H](CCCCN)C(=O)N1CCC[C@H]1C(=O)N[C@@H](CCCNC(=N)N)C(=O)O` [Tuftsin, Thr-Lys-Pro-Arg-OH] (H-TKPR-OH): the % inhibition – broadly, the relative decrease from the control value, in per cent – was found to be 0.0%.
